Laboratory results from publication PMC10644346, “Shotgun Kinetic Target-Guided Synthesis Approach Enables the Discovery of Small-Molecule Inhibitors against Pathogenic Free-Living Amoeba Glucokinases” (ACS Infectious Diseases, 2023).

Experiments:
[1] = target: T1, HsGlck (human glucokinase) (Homo sapiens, UniProt P35557); assay: Glucokinase assay (G6PDH-coupled reaction, absorbance at 340 nm), HsGlck; format: biochemical; details: 10 nM enzyme, 15 min preincubation, pH 7.4, triplicate
T1 sequence (P35557 1-465): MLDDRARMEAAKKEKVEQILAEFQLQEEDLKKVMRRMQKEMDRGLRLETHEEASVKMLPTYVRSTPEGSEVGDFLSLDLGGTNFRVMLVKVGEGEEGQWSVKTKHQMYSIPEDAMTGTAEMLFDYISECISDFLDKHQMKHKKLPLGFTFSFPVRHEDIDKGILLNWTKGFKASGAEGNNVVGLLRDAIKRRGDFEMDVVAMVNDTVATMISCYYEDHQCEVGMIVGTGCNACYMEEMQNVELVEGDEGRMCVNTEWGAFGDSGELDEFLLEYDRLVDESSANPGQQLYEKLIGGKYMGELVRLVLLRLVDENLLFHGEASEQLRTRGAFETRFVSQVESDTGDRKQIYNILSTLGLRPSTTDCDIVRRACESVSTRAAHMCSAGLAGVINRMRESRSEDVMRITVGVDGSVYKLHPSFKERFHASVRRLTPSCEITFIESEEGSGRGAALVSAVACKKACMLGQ
Description: (§1) Enzyme activities were measured in triplicate using a coupled reaction described previously.[54] In a clear 96-well plate, enzyme (HsGlck, NfGlck, AcGlck, or BmGlck, all at 10 nM) was incubated with potential inhibitors (in DMSO) in their optimized assay buffer for 15 min at room temperature. For HsGlck and NfGlck, the assay buffer contained 50 mM TEA and 3.3 mM MgCl2, pH 7.4. For AcGlck and BmGlck, the assay buffer contained 50 mM Tris-HCl and 3.3 mM MgCl2, pH 8. Substrate buffer (425 μM glucose, 2.5 mM ATP, 1 U/mL G6PDH, and 0.75 mM NADP^+) was added to each well to start the reaction for a total reaction volume of 200 μL. Immediately after addition, absorbance was measured at 340 nm at 15 s intervals for 2 min by using a BioTek Synergy H1 microplate reader (BioTek, Winooski, VT). Dose–response analysis and IC50 values were performed by using Prism 9.0 (GraphPad software, San Diego, CA). As a control, enzyme activity in inhibitor solvent (DMSO) was included in every assay. To solve the mode of inhibition, NfGlck activity was measured with increasing substrate concentrations (0–1.25 mM) of glucose in the presence or absence of different inhibitor concentrations (0–10 μM) in technical triplicates. Data were then analyzed, and statistical analyses were performed by extra sum-of-squares F test to compare two models of inhibition. […] All statistical analyses were performed using Prism 9 software.

[2] = target: T2, AcGlck (Acanthamoeba castellanii glucokinase) (Acanthamoeba castellanii, UniProt L8GT25); assay: Glucokinase assay (G6PDH-coupled reaction, absorbance at 340 nm), AcGlck; format: biochemical; details: 10 nM enzyme, 15 min preincubation, pH 8, triplicate
Description: (§2) The open reading frames of NfGlck, AcGlck, and BmGlck were cloned into pQE30, transformed into M15(pREP) Escherichia coli (Qiagen, Valencia, CA), and expressed as previously described.[48],[54] Briefly, E. coli M15(pREP4) harboring pQE30 constructs were inoculated and grown to an optical density at 600 nm (OD600) of ∼0.6 prior to induction with 500 μM isopropyl β-D-1-thiogalactopyranoside (IPTG). Protein from bacterial lysate was purified by nickel column chromatography (HisTrap FF; GE Healthcare Life Sciences, Pittsburgh, PA) followed by ion-exchange chromatography (HiTrap Q XL; GE Healthcare Life Sciences, Pittsburgh, PA). Protein was typically stored in 25 mM HEPES–Na (pH 7.4), 150 mM NaCl, and 50% glycerol after protein concentrations were determined by using a Bradford assay with bovine serum albumin (BSA) as a standard.
as §1

[3] = target: T3, BmGlck (Balamuthia mandrillaris glucokinase) (Balamuthia mandrillaris, UniProt Z9NIO0WF95); assay: Glucokinase assay (G6PDH-coupled reaction, absorbance at 340 nm), BmGlck; format: biochemical; details: 10 nM enzyme, 15 min preincubation, pH 8, triplicate
Description: as §2, §1

[4] = target: T4, NfGlck (Naegleria fowleri glucokinase) (Naegleria fowleri, UniProt A0A384E136); assay: Glucokinase assay (G6PDH-coupled reaction, absorbance at 340 nm), NfGlck; format: biochemical; details: for IC50: 10 nM enzyme, 15 min preincubation, pH 7.4, triplicate
Description: as §2, §1

[5] = tested on: N. fowleri; design: method as in PMID 30783001; details: media containing the glycolytic inhibitor; cited from earlier work
[6] = target: T2, AcGlck (Acanthamoeba castellanii glucokinase); design: method as in PMID 35604214; details: cited from earlier work
[7] = target: T3, BmGlck (Balamuthia mandrillaris glucokinase); design: method as in PMID 35604214; details: cited from earlier work
[8] = target: T4, NfGlck (Naegleria fowleri glucokinase); design: method as in PMID 35604214; details: cited from earlier work; for selectivity over the human variant (HsGlck): NfGlck vs HsGlck; for NfGlck IC50: previously identified NfGlck inhibitors

T2 sequence (L8GT25 entry or part of it): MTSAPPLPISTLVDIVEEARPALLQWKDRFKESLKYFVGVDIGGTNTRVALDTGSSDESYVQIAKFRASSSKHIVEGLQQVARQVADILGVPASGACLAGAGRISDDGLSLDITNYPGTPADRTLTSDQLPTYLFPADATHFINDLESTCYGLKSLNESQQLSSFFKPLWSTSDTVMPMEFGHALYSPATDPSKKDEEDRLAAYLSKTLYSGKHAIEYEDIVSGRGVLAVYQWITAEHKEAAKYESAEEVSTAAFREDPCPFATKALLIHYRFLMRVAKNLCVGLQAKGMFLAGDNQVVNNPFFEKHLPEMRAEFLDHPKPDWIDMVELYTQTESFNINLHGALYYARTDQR
T4 sequence (A0A384E136 entry or part of it): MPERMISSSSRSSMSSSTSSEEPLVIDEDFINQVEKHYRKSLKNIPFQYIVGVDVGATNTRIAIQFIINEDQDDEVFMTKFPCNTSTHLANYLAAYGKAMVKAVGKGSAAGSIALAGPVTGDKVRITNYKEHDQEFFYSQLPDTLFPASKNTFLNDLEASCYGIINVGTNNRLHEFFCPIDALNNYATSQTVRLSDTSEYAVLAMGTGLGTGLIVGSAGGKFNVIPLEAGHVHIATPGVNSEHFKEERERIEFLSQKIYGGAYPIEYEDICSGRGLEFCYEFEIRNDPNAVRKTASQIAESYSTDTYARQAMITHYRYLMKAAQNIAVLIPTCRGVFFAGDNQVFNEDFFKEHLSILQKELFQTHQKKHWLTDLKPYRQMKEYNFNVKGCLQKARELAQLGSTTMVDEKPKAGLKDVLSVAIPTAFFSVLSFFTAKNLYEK

| IC50 [1] [µM] | IC50 [2] [µM] | IC50 [3] [µM] | IC50 [4] [µM] | selectivity for NfGlck over HsGlck ([4]; NfGlck vs HsGlck IC50) | SMILES | effect on N. fowleri cellular growth [5] | activity against AcGlck [6] | activity against BmGlck [7] | selectivity over the human variant (HsGlck) [8] | NfGlck IC50 [8] |
| --- | --- | --- | --- | --- | --- | --- | --- | --- | --- | --- |
| > 10 | 4.4 ± 0.4 | 1.48 ± 0.13 | > 10 | – | O=C(NS(=O)(=O)c1ccc(-c2ccc3c(c2)OCCO3)cc1)c1ccc2c(ccn2Cc2ccc(C(F)(F)F)cc2C(F)(F)F)c1 [SZ33TA30] | – | – | – | – | – |
| – | – | – | – | – | O=C(O)C(=O)CBr [3-bromopyruvate] | decrease in cellular growth | – | – | – | – |
| > 10 | > 10 | 1.68 ± 0.05 | > 10 | – | O=C(NS(=O)(=O)CCN(CSCc1ccccc1)Cc1ccc2c(c1)OCO2)c1ccc2c(ccn2Cc2ccc(C(F)(F)F)cc2C(F)(F)F)c1 [SZ28TA30] | – | – | – | – | – |
| > 10 | 5.1 ± 0.5 | 4.83 ± 0.76 | > 10 | – | COc1ccccc1-c1ccc(C(=O)NS(=O)(=O)c2ccc(-c3cc4ccccc4s3)cc2)cc1 [SZ37TA21] | – | – | – | – | – |
| 10.6 ± 0.45 | > 10 | > 10 | 10.9 ± 2 | – | Cn1cc(C(=O)c2cccs2)c2cc(C(=O)NS(=O)(=O)c3ccc(-c4ccc5c(c4)OCCO5)cc3)ccc21 [SZ33TA45] | – | – | – | – | – |
| > 10 | 3.09 ± 0.66 | 7.22 ± 0.28 | > 10 | – | O=C(NS(=O)(=O)CCN(CSCc1ccccc1)Cc1ccc2c(c1)OCO2)c1ccc2oc(-c3ccccc3)cc2c1 [SZ28TA41] | – | – | – | – | – |
| – | – | – | – | – | N=C(N)Nc1ccc(-c2ccc(-c3ccc(N=C(N)N)c(Cl)c3)o2)cc1Cl [MMV688271] | – | not active | not active | lacked significant selectivity | submicromolar |
| > 10 | 11.6 ± 9.2 | > 10 | > 10 | – | COc1cc(OC)cc(C(=O)NS(=O)(=O)c2ccc(CN3CCN(c4ccccc4)CC3)cc2)c1 [SZ1TA5] | – | – | – | – | – |
| > 10 | 3.3 ± 1.3 | 1.92 ± 0.13 | > 10 | – | Cn1cc(C(=O)c2cccs2)c2cc(C(=O)NS(=O)(=O)c3ccc(-c4ccc(Oc5ccccc5)cc4)cc3)ccc21 [SZ35TA45] | – | – | – | – | – |
| > 10 | > 10 | 3 ± 0.54 | > 10 | – | O=C(NS(=O)(=O)c1ccc(-c2ccc(C(F)(F)F)cc2)cc1)c1ccc2oc(-c3ccccc3)cc2c1 [SZ16TA41] | – | – | – | – | – |
| 8.5 ± 0.37 | 0.21 ± 0.04 | 0.33 ± 0.05 | 1.9 ± 1.1 | slight selectivity | O=C(NS(=O)(=O)c1ccc(-c2ccc(Oc3ccccc3)cc2)cc1)c1ccc2c(ccn2Cc2ccc(C(F)(F)F)cc2C(F)(F)F)c1 [SZ35TA30] | – | – | – | – | – |
| > 10 | 6.9 | > 10 | > 10 | – | CCOc1ccc(-c2ccc3c(c2)c(C(=O)NS(=O)(=O)c2ccc(-c4ccc(Oc5ccccc5)cc4)cc2)cn3C)cc1F [SZ35TA23] | – | – | – | – | – |
| – | – | – | – | – | O=c1c2ccccc2[se]n1-c1ccccc1 [SID856002, ebselen] | – | – | – | lacked significant selectivity | submicromolar |
| > 10 | 1.6 ± 0.1 | 1.19 ± 0.29 | > 10 | – | O=C(NS(=O)(=O)c1ccc(-c2ccc(Oc3ccccc3)cc2)cc1)c1ccc2oc(-c3ccccc3)cc2c1 [SZ35TA41] | – | – | – | – | – |
| > 10 | 4.35 ± 0.31 | 4.77 ± 1 | > 10 | – | Cn1cc(C(=O)NS(=O)(=O)CCN(CSCc2ccccc2)Cc2ccc3c(c2)OCO3)c2cc(-c3ccc(S(C)(=O)=O)cc3)ccc21 [SZ28TA26] | – | – | – | – | – |
